Data as given in patent publication US12398154B2, “Azaquinazoline pan-KRas inhibitors” (Mirati Therapeutics, Inc., priority 2020, dated 2025).

What was measured:
Test in all cases: biochemical
KRas G12D = KRas G12D (Homo sapiens, UniProt P01116, G12D);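 also: TR-FRET displacement binding assay on KRas, read after a one-hour incubation at room temperature, IC50 fitted from percent-of-control values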
Protocol: (§1) The ability of a compound to bind to KRas was measured using a TR-FRET displacement assay. […] After a 60-minute incubation at room temperature, the reaction was measured using a BMG LABTECH CLARIO star Plus via TR-FRET. […] The POC values were fit to a 4-parameter IC50 equation and the IC50 value reported.

KRas G12V = KRas G12V (Homo sapiens, UniProt P01116, G12V);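 also: KRas binding measured by TR-FRET displacement at room temperature, IC50 fitted from percent of control values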
Chain of KRas G12V (P01116 1-169 isoform P01116-2 G12V): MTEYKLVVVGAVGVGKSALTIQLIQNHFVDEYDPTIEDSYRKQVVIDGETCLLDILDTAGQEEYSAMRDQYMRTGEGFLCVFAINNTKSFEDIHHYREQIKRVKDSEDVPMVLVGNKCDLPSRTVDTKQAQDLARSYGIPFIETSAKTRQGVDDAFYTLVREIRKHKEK
Protocol: as §1

KRas G12R = KRas G12R (Homo sapiens, UniProt P01116, G12R);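 also: TR-FRET displacement assay of compound binding to KRas, read after one hour at room temperature, potency from a four-parameter fit of percent-of-control values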
Chain of KRas G12R (P01116 1-169 isoform P01116-2 G12R): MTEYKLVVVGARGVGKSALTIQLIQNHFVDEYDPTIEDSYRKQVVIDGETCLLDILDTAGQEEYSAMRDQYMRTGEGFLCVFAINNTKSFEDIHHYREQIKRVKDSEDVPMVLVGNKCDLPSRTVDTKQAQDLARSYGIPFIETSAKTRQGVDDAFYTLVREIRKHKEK
Protocol: as §1

Chain of KRas G12D (P01116 1-169 isoform P01116-2 G12D): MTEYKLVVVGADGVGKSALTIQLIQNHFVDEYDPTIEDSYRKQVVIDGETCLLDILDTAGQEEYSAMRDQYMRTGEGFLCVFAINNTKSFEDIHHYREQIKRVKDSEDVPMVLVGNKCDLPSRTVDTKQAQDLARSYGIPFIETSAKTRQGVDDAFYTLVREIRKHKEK

Row | IC50 (KRas G12D) [µM] | IC50 (KRas G12V) [µM] | IC50 (KRas G12R) [µM] | SMILES
1 | 0.33 | 0.565 | 0.866 | CC1(O)CCCN(c2nc(OCC34CCCN3CCC4)nc3c(F)c(-c4cccc5cccc(Cl)c45)ncc23)C1 (centres unmarked) [Example 1, 1-(7-(8-chloronaphthalen-1-yl)-8-fluoro-2-((hexahydro-1H-pyrrolizin-7a-yl)methoxy)pyrido[4,3-d]pyrimidin-4-yl)-3-methylpiperidin-3-ol]
2 | 0.632 | 1.01 | 2.18 | O=C1CC2(CCCN(c3nc(OCC45CCCN4CCC5)nc4c(F)c(-c5cccc6cccc(Cl)c56)ncc34)C2)CN1 (centres unmarked) [Example 2, 7-(7-(8-chloronaphthalen-1-yl)-8-fluoro-2-((tetrahydro-1H-pyrrolizin-7a(5H)-yl)methoxy)pyrido[4,3-d]pyrimidin-4-yl)-2,7-diazaspiro[4.5]decan-3-one]
3 | 8.18 | 11.7 | 20.4 | O=C1CCN(c2nc(OCC34CCCN3CCC4)nc3c(F)c(-c4cccc5cccc(F)c45)ncc23)CCCN1 [Example 3, 5-(8-fluoro-7-(8-fluoronaphthalen-1-yl)-2-((hexahydro-1H-pyrrolizin-7a-yl)methoxy)pyrido[4,3-d]pyrimidin-4-yl)-1,5-diazocan-2-one]
4 | 2.24 | 2.63 | 5.41 | OC1CCCN(c2nc(OCC34CCCN3CCC4)nc3c(F)c(-c4cccc5cccc(F)c45)ncc23)CC1 (centres unmarked) [Example 8, 1-(8-fluoro-7-(8-fluoronaphthalen-1-yl)-2-((hexahydro-1H-pyrrolizin-7a-yl)methoxy)pyrido[4,3-d]pyrimidin-4-yl)azepan-4-ol]
5 | 0.456 | 0.333 | 0.354 | CCc1c(F)ccc2cc(O)cc(-c3ncc4c(N5CCC[C@](C)(O)C5)nc(OC[C@@H]5C[C@@H](OC(=O)NC)CN5C)nc4c3F)c12 [Example 9, [(3R,5S)-5-[[7-(8-ethyl-7-fluoro-3-hydroxy-1-naphthyl)-8-fluoro-4-[(3S)-3-hydroxy-3-methyl-1-piperidyl]pyrido[4,3-d]pyrimidin-2-yl]oxymethyl]-1-methyl-pyrrolidin-3-yl] N-methylcarbamate]
6 | 15.5 | 20.8 | 40.1 | OC1CCN(c2nc(OCC34CCCN3CCC4)nc3c(F)c(-c4cccc5cccc(F)c45)ncc23)CC1 [Example 11, 1-(8-fluoro-7-(8-fluoronaphthalen-1-yl)-2-((hexahydro-1H-pyrrolizin-7a-yl)methoxy)pyrido[4,3-d]pyrimidin-4-yl)piperidin-4-ol]
7 | ≥ 100 | 64.5 | 84.3 | CC1(CNc2nc(OCC34CCCN3CCC4)nc3c(F)c(-c4cccc5cccc(F)c45)ncc23)CCC1 [Example 19, 8-fluoro-7-(8-fluoronaphthalen-1-yl)-2-((hexahydro-1H-pyrrolizin-7a-yl)methoxy)-N-((1-methylcyclobutyl)methyl)pyrido[4,3-d]pyrimidin-4-amine]
8 | – | 13.2 | 12.8 | Fc1c(-c2cccc3cccc(F)c23)ncc2c(N3CCCC4CC43)nc(OCC34CCCN3CCC4)nc12 (centres unmarked) [Example 31, 4-(2-azabicyclo[4.1.0]heptan-2-yl)-8-fluoro-7-(8-fluoronaphthalen-1-yl)-2-((hexahydro-1H-pyrrolizin-7a-yl)methoxy)pyrido[4,3-d]pyrimidine]
9 | 98.6 | ≥ 100 | 86.3 | Fc1c(-c2cccc3cccc(F)c23)ncc2c(N3CCCC4CCCC43)nc(OCC34CCCN3CCC4)nc12 (centres unmarked) [Example 32, 8-fluoro-7-(8-fluoronaphthalen-1-yl)-2-((hexahydro-1H-pyrrolizin-7a-yl)methoxy)-4-(octahydro-1H-cyclopenta[b]pyridin-1-yl)pyrido[4,3-d]pyrimidine]
10 | 6.37 | 6.61 | 10 | C[C@H]1C[C@@H](O)CN(c2nc(OCC34CCCN3CCC4)nc3c(F)c(-c4cccc5cccc(F)c45)ncc23)C1 [Example 33, (3R,5S)-1-(8-fluoro-7-(8-fluoronaphthalen-1-yl)-2-((hexahydro-1H-pyrrolizin-7a-yl)methoxy)pyrido[4,3-d]pyrimidin-4-yl)-5-methylpiperidin-3-ol]
11 | 12.5 | 25.5 | 19.8 | Cc1cc2sc(N)nc2c(-c2ncc3c(N4CCCC(C)(O)C4)nc(OC[C@@]45CCCN4C[C@H](F)C5)nc3c2F)c1C (stereo partly drawn) [Example 39, 1-(7-(2-amino-5,6-dimethylbenzo[d]thiazol-4-yl)-8-fluoro-2-(((2R,7aS)-2-fluorotetrahydro-1H-pyrrolizin-7a(5H)-yl)methoxy)pyrido[4,3-d]pyrimidin-4-yl)-3-methylpiperidin-3-ol]
12 | 55 | 66.3 | 76.9 | Cc1cc2sc(N)nc2c(-c2ncc3c(N4CCCC(C)(O)C4)nc(OCC45CCCN4CCC5)nc3c2F)c1C (centres unmarked) [Example 40, 1-(7-(2-amino-5,6-dimethylbenzo[d]thiazol-4-yl)-8-fluoro-2-((hexahydro-1H-pyrrolizin-7a-yl)methoxy)pyrido[4,3-d]pyrimidin-4-yl)-3-methylpiperidin-3-ol]
13 | 6.48 | 3.41 | 6.39 | Fc1c(-c2cccc3cccc(F)c23)ncc2c(N3CCCCCCC3)nc(OCC34CCCN3CCC4)nc12 [Example 41, 4-(azocan-1-yl)-8-fluoro-7-(8-fluoronaphthalen-1-yl)-2-((hexahydro-1H-pyrrolizin-7a-yl)methoxy)pyrido[4,3-d]pyrimidine]
14 | 1.86 | 1.61 | 3.09 | Fc1c(-c2cccc3cccc(F)c23)ncc2c(N3CCCOCC3)nc(OCC34CCCN3CCC4)nc12 [Example 42, 4-(8-fluoro-7-(8-fluoronaphthalen-1-yl)-2-((hexahydro-1H-pyrrolizin-7a-yl)methoxy)pyrido[4,3-d]pyrimidin-4-yl)-1,4-oxazepane]
15 | 3.78 | 1.3 | 2.27 | Fc1c(-c2cccc3cccc(F)c23)ncc2c(N3CCCSCC3)nc(OCC34CCCN3CCC4)nc12 [Example 43, 4-(8-fluoro-7-(8-fluoronaphthalen-1-yl)-2-((hexahydro-1H-pyrrolizin-7a-yl)methoxy)pyrido[4,3-d]pyrimidin-4-yl)-1,4-thiazepane]
16 | 3.23 | 2.99 | 6.24 | OC1CCCCN(c2nc(OCC34CCCN3CCC4)nc3c(F)c(-c4cccc5cccc(F)c45)ncc23)C1 (centres unmarked) [Example 44, 1-(8-fluoro-7-(8-fluoronaphthalen-1-yl)-2-((hexahydro-1H-pyrrolizin-7a-yl)methoxy)pyrido[4,3-d]pyrimidin-4-yl)azepan-3-ol]
17 | 0.089 | 0.189 | 0.362 | O=C1NCC2(CCCN(c3nc(OCC45CCCN4CCC5)nc4c(F)c(-c5cccc6cccc(F)c56)ncc34)C2)N1 (centres unmarked) [Example 45, 7-(8-fluoro-7-(8-fluoronaphthalen-1-yl)-2-((hexahydro-1H-pyrrolizin-7a-yl)methoxy)pyrido[4,3-d]pyrimidin-4-yl)-1,3,7-triazaspiro[4.5]decan-2-one]
18 | 63.4 | 70.1 | ≥ 100 | OC1CCC2(CCCN(c3nc(OCC45CCCN4CCC5)nc4c(F)c(-c5cccc6cccc(F)c56)ncc34)C2)C1 (centres unmarked) [Example 47, 7-(8-fluoro-7-(8-fluoronaphthalen-1-yl)-2-((hexahydro-1H-pyrrolizin-7a-yl)methoxy)pyrido[4,3-d]pyrimidin-4-yl)-7-azaspiro[4.5]decan-2-ol]
19 | 70 | 27.9 | 18.9 | Fc1c(-c2cccc3cccc(F)c23)ncc2c(N3CCOCC3)nc(OCC34CCCN3CCC4)nc12 [Example 49, 4-(8-fluoro-7-(8-fluoronaphthalen-1-yl)-2-((tetrahydro-1H-pyrrolizin-7a(5H)-yl)methoxy)pyrido[4,3-d]pyrimidin-4-yl)morpholine]
20 | 39 | 22.6 | 22.7 | Fc1c(-c2cccc3cccc(F)c23)ncc2c(N3CCSCC3)nc(OCC34CCCN3CCC4)nc12 [Example 50, 4-(8-fluoro-7-(8-fluoronaphthalen-1-yl)-2-((hexahydro-1H-pyrrolizin-7a-yl)methoxy)pyrido[4,3-d]pyrimidin-4-yl)thiomorpholine]
21 | 0.235 | 0.025 | 0.039 | CCc1c(F)ccc2cc(O)cc(-c3ncc4c(NCC5(O)CCCCC5)nc(OC[C@@]56CCCN5C[C@H](F)C6)nc4c3F)c12 [Example 52, 5-ethyl-6-fluoro-4-(8-fluoro-2-(((2R,7aS)-2-fluorohexahydro-1H-pyrrolizin-7a-yl)methoxy)-4-(((1-hydroxycyclohexyl)methyl)amino)pyrido[4,3-d]pyrimidin-7-yl)naphthalen-2-ol]
22 | 66.4 | 49.4 | 90.2 | CC1(C)CCCN(c2nc(OCC34CCCN3CCC4)nc3c(F)c(-c4cccc5cccc(F)c45)ncc23)C1 [Example 53, 4-(3,3-dimethylpiperidin-1-yl)-8-fluoro-7-(8-fluoronaphthalen-1-yl)-2-((hexahydro-1H-pyrrolizin-7a-yl)methoxy)pyrido[4,3-d]pyrimidine]
23 | 0.162 | 0.321 | 0.528 | CCc1cccc2cccc(-c3ncc4c(N5CCCC(C)(O)C5)nc(OCC56CCCN5CCC6)nc4c3F)c12 (centres unmarked) [Example 54, 1-(7-(8-ethylnaphthalen-1-yl)-8-fluoro-2-((hexahydro-1H-pyrrolizin-7a-yl)methoxy)pyrido[4,3-d]pyrimidin-4-yl)-3-methylpiperidin-3-ol]
24 | 2.61 | 3.76 | 8.34 | CC1(O)CCCN(c2nc(OCC34CCCN3CCC4)nc3c(F)c(-c4cccc5cccc(C#N)c45)ncc23)C1 (centres unmarked) [Example 56, 8-(8-fluoro-2-((hexahydro-1H-pyrrolizin-7a-yl)methoxy)-4-(3-hydroxy-3-methylpiperidin-1-yl)pyrido[4,3-d]pyrimidin-7-yl)-1-naphthonitrile]
25 | 26.9 | 44.5 | 67.8 | CC1(O)CCCN(c2nc(OCC34CCCN3CCC4)nc3c(F)c(-c4cccc5cccnc45)ncc23)C1 (centres unmarked) [Example 66]
